Three compounds from patent US7569547B2, “Inhibiting furin with polybasic peptides” (Board of Supervisors of Louisiana State University and …, priority 2001, dated 2009) can be followed below.

SMILES strings stand for the structures. Read-outs that look alike come from different tables or passages of the source.

Holding throughout (assay type): biochemical
For one assay, the target named is T1, PACE4 (Rattus norvegicus, UniProt Q63415).
T1 construct: made in house; host or cells: stably transfected hEK-293 cells (gift of R. E. Mains), conditioned medium
T1 sequence (Q63415 133-937): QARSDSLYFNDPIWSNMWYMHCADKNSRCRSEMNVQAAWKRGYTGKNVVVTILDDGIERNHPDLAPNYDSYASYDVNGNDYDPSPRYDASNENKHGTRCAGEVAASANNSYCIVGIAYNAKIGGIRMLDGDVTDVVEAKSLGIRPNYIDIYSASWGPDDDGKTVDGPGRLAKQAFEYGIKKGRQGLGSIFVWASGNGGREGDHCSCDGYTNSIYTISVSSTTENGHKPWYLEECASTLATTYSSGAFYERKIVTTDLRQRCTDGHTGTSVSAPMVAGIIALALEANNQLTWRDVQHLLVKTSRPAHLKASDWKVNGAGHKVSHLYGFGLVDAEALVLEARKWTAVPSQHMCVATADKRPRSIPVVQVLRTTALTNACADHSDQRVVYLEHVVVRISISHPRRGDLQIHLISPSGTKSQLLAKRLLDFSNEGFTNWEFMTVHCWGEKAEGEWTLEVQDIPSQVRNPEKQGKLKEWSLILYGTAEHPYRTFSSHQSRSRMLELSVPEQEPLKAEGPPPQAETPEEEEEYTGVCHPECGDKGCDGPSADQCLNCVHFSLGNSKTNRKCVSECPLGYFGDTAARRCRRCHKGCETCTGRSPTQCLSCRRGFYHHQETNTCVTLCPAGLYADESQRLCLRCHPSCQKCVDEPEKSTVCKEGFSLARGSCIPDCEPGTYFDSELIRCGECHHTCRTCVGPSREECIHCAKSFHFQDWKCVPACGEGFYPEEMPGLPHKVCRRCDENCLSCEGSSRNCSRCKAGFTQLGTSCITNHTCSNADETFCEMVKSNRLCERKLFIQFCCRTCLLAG
The experiment in a line: PACE4 enzyme assay, hydrolysis of pERTKR-MCA. Here is the method:
The proprotein convertase PACE4 was partially purified from an overnight-conditioned medium of stably transfected hEK-293 human embryonic kidney cells (a generous gift of R. E. Mains, Johns Hopkins University School of Medicine, Baltimore, Md.). Briefly, 100 mL of conditioned medium (OptiMEM containing 100 μg/mL aprotinin) was loaded onto an Econo-Pac Q (Bio-Rad) column at 4 mL/min, washed with 10 mL of buffer A, and then eluted with a linear gradient of buffer A containing 500 mM NaCl over 50 mL. The active fractions were then diluted 1:4 with buffer A prior to loading onto a Mono Q column (Pharmacia) at 1 mL/min. The PACE4 was eluted with a linear gradient of buffer A containing 500 mM NaCl over 10 mL. The resulting active fractions were then pooled and stored at −80° C. until use.
(§1) Enzyme Assays and Hexapeptide Library Screening. Enzyme assays for PC1 and PC2 were performed at pH 5.0 using pERTKR-MCA (Peptides International Inc., Louisville, Ky.) as described in E. Apletalina et al., J. Biol. Chem., vol. 273, pp. 26589-26595 (1998). The assay for furin was performed using the same substrate at pH 7.0 in 100 mM HEPES, 5 mM CaCl2, 0.1% Brij 35. All assays were performed at 37° C. in a 96 well fluorometer (Labsystems) at an excitation wavelength of 380 nm with emission monitored at a wavelength of 460 nm. The total volume was 50 μL. Unless otherwise stated, the final substrate concentration for all assays was 200 μM. When used in a particular experiment, the inhibitory peptides were pre-incubated with enzyme for 30 min at room temperature prior to addition of substrate. All assays were performed in duplicate or triplicate.

The next assay has as its target T2, PC1 (Mus musculus, UniProt P63239).
T2 construct: made in house
T2 sequence (P63239 111-753): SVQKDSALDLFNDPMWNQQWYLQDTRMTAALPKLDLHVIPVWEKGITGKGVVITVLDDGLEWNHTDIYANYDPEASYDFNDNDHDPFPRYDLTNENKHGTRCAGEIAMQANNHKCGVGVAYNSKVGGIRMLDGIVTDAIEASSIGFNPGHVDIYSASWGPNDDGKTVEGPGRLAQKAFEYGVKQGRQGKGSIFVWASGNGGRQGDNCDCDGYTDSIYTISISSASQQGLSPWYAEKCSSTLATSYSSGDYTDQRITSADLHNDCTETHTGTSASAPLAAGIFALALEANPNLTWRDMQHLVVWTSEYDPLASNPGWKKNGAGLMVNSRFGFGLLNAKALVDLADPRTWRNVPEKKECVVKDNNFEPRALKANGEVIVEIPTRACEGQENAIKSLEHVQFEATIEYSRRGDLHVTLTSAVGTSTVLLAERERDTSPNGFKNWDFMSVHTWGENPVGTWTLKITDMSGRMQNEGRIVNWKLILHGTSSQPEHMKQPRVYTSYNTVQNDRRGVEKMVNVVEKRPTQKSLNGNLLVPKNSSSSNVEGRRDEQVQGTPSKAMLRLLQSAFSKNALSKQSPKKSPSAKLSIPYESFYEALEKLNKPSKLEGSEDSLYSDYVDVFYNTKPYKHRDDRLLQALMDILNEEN
Briefly: biochemical. The procedure: The proprotein convertases PC1 and PC2 were prepared by ion exchange chromatography as described in G. Frenette et al., Biochim. Biophys. Acta., vol. 1334, pp. 109-115 (1997).
as §1

For a further assay, the target named is T3, furin (Mus musculus, UniProt P23188).
T3 construct: truncated N-terminally to the transmembrane domain at His^711 using PCR; myc (C, cleaved yes); hexa-His (C, cleaved yes); made in house; host or cells: DG44 CHO cells, conditioned medium
The experiment in a line: Cleavage of polyarginines by furin, HPLC analysis. The procedure:
Absorbance was monitored at 214 nm. Cleavage products were identified by comparison to polyarginine standards.
Cleavage of Nona-L-arginine (SEQ ID NO 13) and Hexa-L-arginine (SEQ ID NO 14) by Furin. FIGS. 10(a) through (h) depict the cleavage of nona-L-arginine (SEQ ID NO 13) and hexa-L-arginine (SEQ ID NO 14) by furin. Furin (FIGS. (10(b), (c), (d), (e), and (g)) or buffer (FIGS. 10(f) and (h) was incubated with nona-L-arginine (SEQ ID NO 13) (FIGS. 10(b), (c), (d), (e), and (f) or hexa-L-arginine (SEQ ID NO 14) (FIGS. (10(g) and (h) at 37° C. for 0 min (FIG. (10(b)), 40 min (FIG. 10(c)), 6 h (FIG. 10(d)), or 24 h (FIGS. 10(e), (f), (g), and (h) prior to separation by HPLC as described in the experimental procedures. In FIG. 10(a) the simple separation of a standard mixture polyarginines (without enzyme) is shown; the number of residues per poly-L-arginine is indicated by the positions of the arrows at the tops of FIGS. 10(a) and (e).

T3 sequence (P23188 108-714 limits assumed): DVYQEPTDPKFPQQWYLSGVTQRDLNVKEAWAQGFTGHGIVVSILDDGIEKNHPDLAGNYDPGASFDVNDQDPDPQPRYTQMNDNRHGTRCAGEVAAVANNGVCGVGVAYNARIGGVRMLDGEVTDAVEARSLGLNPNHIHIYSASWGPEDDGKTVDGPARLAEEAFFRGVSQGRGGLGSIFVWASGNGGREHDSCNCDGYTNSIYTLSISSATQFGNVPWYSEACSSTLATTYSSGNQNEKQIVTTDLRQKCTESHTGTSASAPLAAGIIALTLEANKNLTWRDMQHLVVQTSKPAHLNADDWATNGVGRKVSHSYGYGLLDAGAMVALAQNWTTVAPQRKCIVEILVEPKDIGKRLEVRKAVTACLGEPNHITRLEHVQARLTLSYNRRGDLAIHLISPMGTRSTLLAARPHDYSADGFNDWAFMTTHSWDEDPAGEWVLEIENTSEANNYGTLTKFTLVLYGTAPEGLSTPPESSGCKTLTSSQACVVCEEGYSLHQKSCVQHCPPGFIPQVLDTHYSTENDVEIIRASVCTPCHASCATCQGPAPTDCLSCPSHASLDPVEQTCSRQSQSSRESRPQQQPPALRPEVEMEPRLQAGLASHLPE

For orientation: Ki means a measure of affinity in units of concentration, obtained from inhibition or displacement. As for `N=C(N)NCCC[C@@H](NC(=O)[C@H](N)CCCN=C(N)N)C(=O)N[C@H](CCCNC(=N)N)C(=O)N[C@H](CCCNC(=N)N)C(=O)N[C@H](CCCNC(=N)N)C(=O)N[C@H](CCCN=C(N)N)C(=O)O` [Hexa-D-arginine], the inhibition constant Ki at PACE4 (polyarginine peptides, mean ± S.D., three experiments, read-out: Ki PACE4) turned out to be 580 ± 40 nM; on PC1, 13000 ± 250 nM. Besides, the cleavage by furin result on furin (after 24 hours incubation) is on record as “essentially no cleavage”.
As for `N=C(N)NCCC[C@H](NC(=O)[C@H](CCCNC(=N)N)NC(=O)[C@H](CCCNC(=N)N)NC(=O)[C@H](CCCNC(=N)N)NC(=O)[C@H](CCCNC(=N)N)NC(=O)[C@@H](N)CCCNC(=N)N)C(=O)O` [Hexa-L-arginine], the results for the Ki at PACE4 and on PC1 were 520 ± 45 nM and 3900 ± 620 nM, respectively. The values for the cleavage by furin result at furin (after 24 hours incubation) and on furin (after six hours incubation) were “partial digestion” and “essentially no cleavage”, respectively.
With `N=C(N)NCCC[C@H](NC(=O)[C@H](CCCNC(=N)N)NC(=O)[C@H](CCCNC(=N)N)NC(=O)[C@H](CCCNC(=N)N)NC(=O)[C@H](CCCNC(=N)N)NC(=O)[C@H](CCCNC(=N)N)NC(=O)[C@H](CCCNC(=N)N)NC(=O)[C@H](CCCNC(=N)N)NC(=O)[C@@H](N)CCCNC(=N)N)C(=O)O` [Nona-L-arginine], the Ki on PACE4 is 110 ± 13 nM; on PC1, 12000 ± 2500 nM. Moreover, the “time at which cleavage by furin was first observed” value on furin (200 μM peptide, 1.7 μM furin, 37° C.) was around 40 min. In addition, the original peptide remaining result at furin (after four hours with furin, 37° C.) is given as “essentially none”.
